Experimental data as given in ChEMBL document CHEMBL1201862, “PubChem BioAssay data set” (2004).
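Tested at 5 concentrations; 48 h exposure; 96-well plates; endpoints linearly interpolated, else capped at highest concentration. The concentration for 50% growth inhibition is given as GI50.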 Calls of active or inactive are those of the source. Cut-off read from the data, not from the text of the source: active = GI50 up to about 1.1 µM and inactive = higher.

Columns and labels:
Assay in all cases: NCI-60 cell line screen, 48 h
HCT-15 = system: HCT-15
A498 = system: A498
SK-MEL-5 = system: SK-MEL-5
HCC 2998 = system: HCC 2998
U-251 = system: U-251
NCI-H460 = system: NCI-H460
SK-OV-3 = system: SK-OV-3
SR = system: SR
HOP-92 = system: HOP-92
NCI-H226 = system: NCI-H226
NCI-H23 = system: NCI-H23
ACHN = system: ACHN
SN12C = system: SN12C
OVCAR-5 = system: OVCAR-5
CCRF-CEM = system: CCRF-CEM
NCI-H522 = system: NCI-H522
Malme-3M = system: Malme-3M
SF-295 = system: SF-295
SNB-19 = system: SNB-19
HL-60 = system: HL-60

Compound	GI50 (HCT-15) [µM]	GI50 (A498)	GI50 (SK-MEL-5)	GI50 (HCC 2998)	GI50 (U-251)	GI50 (NCI-H460)	GI50 (SK-OV-3)	GI50 (SR)	GI50 (HOP-92)	GI50 (NCI-H226)	GI50 (NCI-H23)	GI50 (ACHN)	GI50 (SN12C)	GI50 (OVCAR-5)	GI50 (CCRF-CEM)	GI50 (NCI-H522)	GI50 (Malme-3M)	GI50 (SF-295)	GI50 (SNB-19)	GI50 (HL-60)
O=c1sc2c(s1)SSSSS2	> 50	> 50 µM (inactive)	> 50 µM (inactive)	> 50 µM (inactive)	> 50 µM (inactive)	21.4 µM (inactive)	> 50 µM (inactive)	> 50 µM (inactive)	> 50 µM (inactive)	> 50 µM (inactive)	> 50 µM (inactive)	> 50 µM (inactive)	> 50 µM (inactive)	> 50 µM (inactive)	9.18 µM (inactive)	34.2 µM (inactive)	> 50 µM (inactive)	> 50 µM (inactive)	> 50 µM (inactive)	–
COc1cccc2c3ccccc3c3nc[nH]c3c12	27.7	23.1 µM (inactive)	16.7 µM (inactive)	23.9 µM (inactive)	14.7 µM (inactive)	23.7 µM (inactive)	> 62.1 µM (inactive)	14.6 µM (inactive)	27.3 µM (inactive)	37.8 µM (inactive)	> 100 µM (inactive)	44.2 µM (inactive)	> 66.5 µM (inactive)	55.3 µM (inactive)	12.4 µM (inactive)	24.5 µM (inactive)	36.1 µM (inactive)	16 µM (inactive)	> 46.8 µM (inactive)	–
Nc1ccc(/N=N/c2c(S(=O)(=O)O)cc3ccccc3c2S(=O)(=O)O)cc1	> 100	> 100 µM (inactive)	> 100 µM (inactive)	> 100 µM (inactive)	> 100 µM (inactive)	> 100 µM (inactive)	–	> 100 µM (inactive)	> 100 µM (inactive)	> 100 µM (inactive)	> 100 µM (inactive)	> 100 µM (inactive)	> 100 µM (inactive)	> 100 µM (inactive)	34.8 µM (inactive)	> 100 µM (inactive)	> 100 µM (inactive)	> 100 µM (inactive)	> 100 µM (inactive)	–
C#CCOCn1cnc2ncnc(N)c21	–	> 100 µM (inactive)	> 100 µM (inactive)	> 100 µM (inactive)	> 100 µM (inactive)	> 100 µM (inactive)	> 100 µM (inactive)	> 100 µM (inactive)	> 100 µM (inactive)	> 100 µM (inactive)	> 100 µM (inactive)	> 100 µM (inactive)	> 100 µM (inactive)	> 100 µM (inactive)	> 100 µM (inactive)	> 100 µM (inactive)	> 100 µM (inactive)	> 100 µM (inactive)	> 100 µM (inactive)	–
CC(=O)N(C)OC(=O)CC(=O)c1ccccc1	–	–	> 100 µM (inactive)	> 100 µM (inactive)	> 100 µM (inactive)	> 100 µM (inactive)	> 100 µM (inactive)	> 100 µM (inactive)	> 100 µM (inactive)	> 100 µM (inactive)	> 100 µM (inactive)	> 100 µM (inactive)	> 100 µM (inactive)	> 100 µM (inactive)	> 100 µM (inactive)	> 100 µM (inactive)	> 100 µM (inactive)	> 100 µM (inactive)	> 100 µM (inactive)	> 100 µM (inactive)
COC1CC(OC2C(C)OC(OC3C(C)OC(OC4C(C)OC(O[C@H]5CC[C@@]6(C)C(=CC[C@]7(O)[C@@H]6C[C@@H](O)[C@@]6(C)[C@]7(O)CC[C@@]6(O)C(C)=O)C5)CC4OC)CC3OC)CC2OC)OC(C)C1O (some centres undefined)	> 12.5	–	> 12.5 µM (inactive)	> 12.5 µM (inactive)	> 12.5 µM (inactive)	–	> 12.5 µM (inactive)	> 12.5 µM (inactive)	> 12.5 µM (inactive)	> 12.5 µM (inactive)	> 12.5 µM (inactive)	> 12.5 µM (inactive)	> 12.5 µM (inactive)	> 12.5 µM (inactive)	> 12.5 µM (inactive)	> 12.5 µM (inactive)	> 12.5 µM (inactive)	> 12.5 µM (inactive)	> 12.5 µM (inactive)	> 12.5 µM (inactive)
Nc1c2ccccc2nc2ccc3c(=O)cc(-c4ccccc4)oc3c12	1.02	–	1.52 µM (inactive)	0.492 µM (active)	0.531 µM (active)	0.646 µM (active)	1.83 µM (inactive)	0.393 µM (active)	1.24 µM (inactive)	1.31 µM (inactive)	1.53 µM (inactive)	1.12 µM (active)	0.979 µM (active)	1.5 µM (inactive)	0.445 µM (active)	1.25 µM (inactive)	1.66 µM (inactive)	0.719 µM (active)	1.26 µM (inactive)	0.977 µM (active)
Cc1oc(N)c(S(=O)(=O)/C(C#N)=C/c2ccccc2[N+](=O)[O-])c1C	26.5	85.5 µM (inactive)	19.2 µM (inactive)	32.1 µM (inactive)	19.5 µM (inactive)	31.1 µM (inactive)	> 100 µM (inactive)	14 µM (inactive)	34.7 µM (inactive)	58.3 µM (inactive)	23.6 µM (inactive)	25.4 µM (inactive)	22.9 µM (inactive)	20.6 µM (inactive)	24.1 µM (inactive)	19.1 µM (inactive)	33.8 µM (inactive)	33.9 µM (inactive)	33.5 µM (inactive)	–
Cc1ccn2c(=O)cc(CN3CCOCC3)nc2c1	> 100	–	–	> 100 µM (inactive)	> 100 µM (inactive)	> 100 µM (inactive)	> 100 µM (inactive)	> 100 µM (inactive)	> 100 µM (inactive)	> 100 µM (inactive)	> 100 µM (inactive)	> 100 µM (inactive)	> 100 µM (inactive)	> 100 µM (inactive)	> 100 µM (inactive)	> 100 µM (inactive)	> 100 µM (inactive)	> 100 µM (inactive)	> 100 µM (inactive)	> 100 µM (inactive)
COc1cc(/C=C/C(=O)OC[C@H](Br)[C@H](OC(C)=O)c2ccc3c(c2)OCO3)cc(OC)c1OC	> 100	> 100 µM (inactive)	> 100 µM (inactive)	80.4 µM (inactive)	> 100 µM (inactive)	–	> 100 µM (inactive)	48.8 µM (inactive)	> 100 µM (inactive)	> 100 µM (inactive)	> 100 µM (inactive)	> 100 µM (inactive)	> 100 µM (inactive)	> 100 µM (inactive)	> 100 µM (inactive)	> 100 µM (inactive)	> 100 µM (inactive)	> 100 µM (inactive)	> 100 µM (inactive)	–
COc1ccc2c(-c3ccc(OCCN(C)C)cc3)c(Oc3ccccc3)c(=O)oc2c1	3.48	13.4 µM (inactive)	2.37 µM (inactive)	3.5 µM (inactive)	2.82 µM (inactive)	7.64 µM (inactive)	6.27 µM (inactive)	2.07 µM (inactive)	9.53 µM (inactive)	16.1 µM (inactive)	12 µM (inactive)	10.2 µM (inactive)	6.71 µM (inactive)	14.2 µM (inactive)	3.54 µM (inactive)	3.48 µM (inactive)	3.12 µM (inactive)	3.17 µM (inactive)	5.86 µM (inactive)	–
CC(C)OP(=O)(OC(C)C)/C(=N/Nc1ccc([N+](=O)[O-])cc1)NNC(=O)c1ccccc1	48.1	–	17.4 µM (inactive)	25.8 µM (inactive)	26.1 µM (inactive)	28.8 µM (inactive)	–	22.3 µM (inactive)	24.9 µM (inactive)	19 µM (inactive)	24.7 µM (inactive)	82.4 µM (inactive)	> 100 µM (inactive)	> 100 µM (inactive)	17.7 µM (inactive)	42.4 µM (inactive)	> 100 µM (inactive)	–	73.8 µM (inactive)	19.7 µM (inactive)
COc1ccc(/C(=N/O)c2ccccc2C2=Nc3ccccc3C(NCc3ccccc3)O2)cc1C (centres undefined)	30.3	–	17.5 µM (inactive)	20.9 µM (inactive)	30.5 µM (inactive)	29.9 µM (inactive)	21.2 µM (inactive)	32.6 µM (inactive)	20.5 µM (inactive)	37 µM (inactive)	> 100 µM (inactive)	38 µM (inactive)	22.9 µM (inactive)	33.8 µM (inactive)	19.1 µM (inactive)	34 µM (inactive)	18.6 µM (inactive)	25 µM (inactive)	36.6 µM (inactive)	34.8 µM (inactive)
O=C1C=Cc2c(I)sc(I)c21	17.3	48.5 µM (inactive)	74.5 µM (inactive)	18.4 µM (inactive)	17 µM (inactive)	> 100 µM (inactive)	89.7 µM (inactive)	4 µM (inactive)	17 µM (inactive)	31.3 µM (inactive)	18.9 µM (inactive)	36.6 µM (inactive)	19.5 µM (inactive)	25.1 µM (inactive)	2.88 µM (inactive)	1.99 µM (inactive)	14.5 µM (inactive)	46.8 µM (inactive)	–	–
COC(=O)NC1C(C)OC(OC2C/C=C(/C)C3C=CC4C(OC5CC(OC6CC(OC7CC(O)C(O)C(C)O7)C(OC7CC(O)C(OC)C(C)O7)C(C)O6)C(O)C(C)O5)C(C)CC(C)C4C3(C)C(=O)C3=C(O)C4(CC(C)C(CO)=CC4/C=C\2C)OC3=O)CC1(C)[N+](=O)[O-] (centres undefined)	15.6	25.6 µM (inactive)	5.22 µM (inactive)	3.49 µM (inactive)	3.84 µM (inactive)	2.06 µM (inactive)	–	2.71 µM (inactive)	6.24 µM (inactive)	–	12.9 µM (inactive)	11.6 µM (inactive)	11.7 µM (inactive)	16.9 µM (inactive)	3.29 µM (inactive)	2.99 µM (inactive)	–	4.6 µM (inactive)	21.2 µM (inactive)	2.54 µM (inactive)
